Experiments:
[1] = target: T1, FGFR2 (Homo sapiens, UniProt P21802); test: Kinase binding assay (kinase-tagged T7 phage, qPCR), Kd; conditions: read-out: FGFR2 (Kd nM)
T1 construct: made in house; host or cells: E. coli derived from BL21, infected with T7 phage

[2] = target: T2, FGFR1 (Homo sapiens, UniProt P11362); test: as above; conditions: read-out: FGFR1 (Kd nM)
T2 construct: made in house; host or cells: E. coli derived from BL21, infected with T7 phage

[3] = target: T3, BCR-FGFR4 Ba/F3 (Homo sapiens, UniProt P22455); test: Ba/F3 cell viability assay (CellTiter-Glo 2.0); type: cell-based; conditions: Ba/F3 BCR-FGFR4 cells, 48 hours
T3 construct: host or cells: Ba/F3; the other entry of the earlier key: BCR (P11274, Breakpoint cluster region protein)
Excerpt: (§1) Experimental Purpose: Recombinant kinase fusions are transduced into parental Ba/F3, which becomes dependent upon this constitutive kinase activity for IL3-independent survival. Inhibition of kinase activity leads to cell death, which is monitored using CellTiter-Glo® 2.0 (Promega) which measures intracellular ATP concentration that in turn serves as a marker for viability. BCR-FGFR4 Ba/F3, BCR-FGFR1 Ba/F3 and FGFR3-BAIAP2L1 Ba/F3 were obtained from Advanced Cellular Dynamics (Seattle, WA)
(§2) Cell Viability Assay Procedure: Cell Titer-Glo® 2.0 Luminescent cell viability assay reagent was purchased from Promega (Madison, WI). BCR-FGFR4 Ba/F3, BCR-FGFR1 Ba/F3 and FGFR3-BAIAP2L1 Ba/F3 cells were cultured in RPMI1640 media supplemented with 10% fetal bovine serum. Cultures were maintained at 37° C. in a humidified atmosphere of 5% CO2 and 95% air.
(§3) Cells were plated in 96-well clear bottom/white plates (Corning #3903) at 10,000 cells/well in 100 μl of media, incubated overnight. The next day, test compound DMSO stock solutions were made at 10 mM and 2 μM final concentration. Compounds were then added to cells in a 9-dose, 10-fold dilution series starting at 30 μM with an HP 300e Digital Dispenser (each dose was applied in triplicate). DMSO was backfilled to each well up to 301 nL total volume of test compound+DMSO, and a total of 301 nL DMSO was added to a control/no test compound well in triplicate. The cells in cell culture plates were incubated with the compounds at 37° C. and 5% CO2 for 48 hours. Then 50 μl of Cell Titer Glo 2.0 reagent was added to each well of the cell culture plates. The contents were covered from light and mixed on an orbital shaker at room temperature for 10 min. Luminescence was recorded by a Synergy H1 Microplate Reader (Biotek, Winooski, VT). Cells were assessed as a percentage of DMSO only treated control cells. Curves were plotted and IC50 values were calculated using the GraphPad Prism 8 program based on a sigmoidal dose-response equation (4 parameter).

[4] = target: T4, BCR-FGFR1 Ba/F3 (Homo sapiens, UniProt P11362); test: Ba/F3 cell viability assay (CellTiter-Glo 2.0); type: cell-based; conditions: Ba/F3 BCR-FGFR1 cells, 48 hours
T4 construct: host or cells: Ba/F3; the other entry of the earlier key: BCR (P11274, Breakpoint cluster region protein)
Excerpt: as §1, §2, §3

[5] = target: T5, FGFR3-BAIAP2L1 Ba/F3 (Homo sapiens, UniProt P22607); test: Ba/F3 cell viability assay (CellTiter-Glo 2.0); type: cell-based; conditions: Ba/F3 FGFR3-BAIAP2L1 cells, 48 hours
T5 construct: host or cells: Ba/F3; the other entry of the earlier key: BAIAP2L1 (Q9UHR4, BAR/IMD domain-containing adapter protein 2-like 1)
Excerpt: as §1, §2, §3

[6] = target: T6, FGFR4 (Homo sapiens, UniProt P22455); test: Kinase binding assay (kinase-tagged T7 phage, qPCR), Kd; conditions: read-out: FGFR4 (Kd nM)
T6 construct: made in house; host or cells: E. coli derived from BL21, infected with T7 phage

[7] = target: T7, FGFR3 (Homo sapiens, UniProt P22607); test: as above; conditions: read-out: FGFR3 (Kd nM)
T7 construct: made in house; host or cells: E. coli derived from BL21, infected with T7 phage
T7 sequence (P22607 23-806): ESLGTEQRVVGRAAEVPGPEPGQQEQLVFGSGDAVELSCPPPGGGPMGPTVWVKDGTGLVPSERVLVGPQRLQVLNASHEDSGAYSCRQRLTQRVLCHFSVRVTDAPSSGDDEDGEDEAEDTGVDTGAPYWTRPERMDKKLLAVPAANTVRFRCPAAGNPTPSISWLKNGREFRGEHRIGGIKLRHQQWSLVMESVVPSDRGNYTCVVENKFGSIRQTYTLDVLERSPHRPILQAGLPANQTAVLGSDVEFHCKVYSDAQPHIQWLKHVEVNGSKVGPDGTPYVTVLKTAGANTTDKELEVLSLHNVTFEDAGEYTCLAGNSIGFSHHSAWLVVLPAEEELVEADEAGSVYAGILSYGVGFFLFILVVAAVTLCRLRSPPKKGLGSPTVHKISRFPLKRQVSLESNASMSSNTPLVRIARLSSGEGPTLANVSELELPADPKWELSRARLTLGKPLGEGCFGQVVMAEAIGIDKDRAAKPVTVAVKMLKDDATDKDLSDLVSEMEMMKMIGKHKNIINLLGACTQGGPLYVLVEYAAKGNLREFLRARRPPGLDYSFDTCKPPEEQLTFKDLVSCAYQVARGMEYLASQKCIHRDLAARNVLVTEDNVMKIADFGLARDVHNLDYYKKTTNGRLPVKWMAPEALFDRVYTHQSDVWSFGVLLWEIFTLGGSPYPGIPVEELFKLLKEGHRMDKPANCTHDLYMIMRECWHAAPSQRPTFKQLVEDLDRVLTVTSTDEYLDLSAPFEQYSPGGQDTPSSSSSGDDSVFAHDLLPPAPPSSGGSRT

T5 sequence (P22607 397-758 limits assumed): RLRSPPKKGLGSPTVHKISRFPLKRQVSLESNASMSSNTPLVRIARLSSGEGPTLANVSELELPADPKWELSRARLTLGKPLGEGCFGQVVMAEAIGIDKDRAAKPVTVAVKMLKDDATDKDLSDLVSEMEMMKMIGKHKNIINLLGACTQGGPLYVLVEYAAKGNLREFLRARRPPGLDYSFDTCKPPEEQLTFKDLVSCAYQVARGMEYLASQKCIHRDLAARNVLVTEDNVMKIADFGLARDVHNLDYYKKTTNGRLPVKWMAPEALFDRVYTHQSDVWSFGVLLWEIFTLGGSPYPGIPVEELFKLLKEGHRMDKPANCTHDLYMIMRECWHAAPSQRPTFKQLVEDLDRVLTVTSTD
T1 sequence (P21802 22-821): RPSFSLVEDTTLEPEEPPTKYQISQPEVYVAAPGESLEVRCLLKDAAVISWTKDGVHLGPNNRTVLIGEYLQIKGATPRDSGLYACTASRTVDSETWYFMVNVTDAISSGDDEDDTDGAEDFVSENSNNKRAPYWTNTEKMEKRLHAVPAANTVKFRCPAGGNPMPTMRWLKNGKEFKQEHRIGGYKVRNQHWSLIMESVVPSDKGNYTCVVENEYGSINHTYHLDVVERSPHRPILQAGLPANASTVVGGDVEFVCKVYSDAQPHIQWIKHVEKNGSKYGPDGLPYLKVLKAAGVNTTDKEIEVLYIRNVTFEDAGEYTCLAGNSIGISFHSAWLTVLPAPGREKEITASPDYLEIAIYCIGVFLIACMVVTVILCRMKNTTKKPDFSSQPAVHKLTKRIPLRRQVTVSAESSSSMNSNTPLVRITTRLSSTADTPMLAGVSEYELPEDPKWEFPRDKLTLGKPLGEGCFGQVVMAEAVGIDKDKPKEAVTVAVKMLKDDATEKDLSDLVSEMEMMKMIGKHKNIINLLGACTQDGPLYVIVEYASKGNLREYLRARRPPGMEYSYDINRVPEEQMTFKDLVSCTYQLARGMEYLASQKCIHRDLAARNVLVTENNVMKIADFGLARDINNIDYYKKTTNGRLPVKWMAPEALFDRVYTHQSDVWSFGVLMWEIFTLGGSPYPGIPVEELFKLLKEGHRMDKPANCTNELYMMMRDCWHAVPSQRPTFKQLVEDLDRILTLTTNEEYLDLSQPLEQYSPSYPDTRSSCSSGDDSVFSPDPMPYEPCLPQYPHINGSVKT
T6 sequence (P22455 22-802): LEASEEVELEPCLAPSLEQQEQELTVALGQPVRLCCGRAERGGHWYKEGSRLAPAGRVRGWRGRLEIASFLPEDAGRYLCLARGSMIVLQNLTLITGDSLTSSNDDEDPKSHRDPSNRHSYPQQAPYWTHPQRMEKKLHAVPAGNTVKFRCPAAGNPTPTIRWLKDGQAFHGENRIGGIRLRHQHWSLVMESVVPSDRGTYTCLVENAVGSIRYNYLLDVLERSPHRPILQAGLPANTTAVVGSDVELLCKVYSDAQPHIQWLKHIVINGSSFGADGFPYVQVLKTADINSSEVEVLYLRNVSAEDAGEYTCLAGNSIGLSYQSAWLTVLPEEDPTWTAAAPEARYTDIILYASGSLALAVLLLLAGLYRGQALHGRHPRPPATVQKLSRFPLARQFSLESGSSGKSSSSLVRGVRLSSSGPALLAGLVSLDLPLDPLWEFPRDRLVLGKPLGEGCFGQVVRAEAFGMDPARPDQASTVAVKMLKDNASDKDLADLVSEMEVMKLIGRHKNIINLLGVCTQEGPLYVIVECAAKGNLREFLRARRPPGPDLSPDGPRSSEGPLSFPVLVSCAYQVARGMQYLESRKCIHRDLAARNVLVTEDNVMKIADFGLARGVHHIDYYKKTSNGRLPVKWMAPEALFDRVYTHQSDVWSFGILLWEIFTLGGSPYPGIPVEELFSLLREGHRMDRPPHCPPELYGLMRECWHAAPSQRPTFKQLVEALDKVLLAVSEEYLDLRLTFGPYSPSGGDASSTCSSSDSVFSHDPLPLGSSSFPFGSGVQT
T3 sequence (P22455 467-755 limits assumed): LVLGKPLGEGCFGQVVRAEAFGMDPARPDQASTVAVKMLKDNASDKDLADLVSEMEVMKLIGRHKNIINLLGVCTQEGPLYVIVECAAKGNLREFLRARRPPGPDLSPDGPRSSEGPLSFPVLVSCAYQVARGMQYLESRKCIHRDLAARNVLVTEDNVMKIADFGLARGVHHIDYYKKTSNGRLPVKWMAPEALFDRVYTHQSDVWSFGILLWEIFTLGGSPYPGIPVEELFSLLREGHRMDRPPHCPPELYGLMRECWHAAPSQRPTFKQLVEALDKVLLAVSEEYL
T2 sequence (P11362 22-822): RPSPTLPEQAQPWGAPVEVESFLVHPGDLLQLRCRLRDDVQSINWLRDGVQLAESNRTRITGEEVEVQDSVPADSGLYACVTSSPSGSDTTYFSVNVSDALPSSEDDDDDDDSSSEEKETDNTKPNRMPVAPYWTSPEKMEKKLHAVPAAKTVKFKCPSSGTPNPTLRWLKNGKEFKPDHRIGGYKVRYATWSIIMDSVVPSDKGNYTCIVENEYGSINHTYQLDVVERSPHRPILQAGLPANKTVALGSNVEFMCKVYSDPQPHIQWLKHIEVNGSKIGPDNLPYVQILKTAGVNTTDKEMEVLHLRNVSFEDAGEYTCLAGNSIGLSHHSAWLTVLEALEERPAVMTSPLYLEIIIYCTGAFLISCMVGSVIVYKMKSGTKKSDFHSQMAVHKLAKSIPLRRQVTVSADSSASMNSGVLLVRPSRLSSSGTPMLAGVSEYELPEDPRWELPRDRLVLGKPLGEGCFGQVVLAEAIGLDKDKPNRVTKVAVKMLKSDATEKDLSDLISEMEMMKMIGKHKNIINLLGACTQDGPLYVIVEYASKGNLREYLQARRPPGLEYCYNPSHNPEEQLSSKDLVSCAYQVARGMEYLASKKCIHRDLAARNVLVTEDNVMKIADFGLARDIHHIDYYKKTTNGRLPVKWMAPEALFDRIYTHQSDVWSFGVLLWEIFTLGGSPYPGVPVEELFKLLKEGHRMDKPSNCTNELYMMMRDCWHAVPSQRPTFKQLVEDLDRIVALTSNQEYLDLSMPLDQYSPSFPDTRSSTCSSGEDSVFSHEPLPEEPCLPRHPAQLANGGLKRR
T4 sequence (P11362 478-767 limits assumed): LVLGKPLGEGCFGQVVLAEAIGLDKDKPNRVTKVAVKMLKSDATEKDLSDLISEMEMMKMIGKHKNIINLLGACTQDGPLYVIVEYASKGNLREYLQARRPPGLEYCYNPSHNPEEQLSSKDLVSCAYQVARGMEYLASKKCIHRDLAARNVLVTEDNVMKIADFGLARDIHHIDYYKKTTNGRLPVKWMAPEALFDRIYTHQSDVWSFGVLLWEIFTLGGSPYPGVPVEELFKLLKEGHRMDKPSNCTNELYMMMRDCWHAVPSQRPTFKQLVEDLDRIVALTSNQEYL

| Structure (SMILES) | Kd [1] [nM] | Kd [2] [nM] | IC50 [3] [nM] | IC50 [4] [nM] | IC50 [5] [nM] | Kd [6] [nM] | Kd [7] [nM] |
| --- | --- | --- | --- | --- | --- | --- | --- |
| Cc1cc(C#N)cc(-c2n[nH]c3ccc(O[C@H](C)c4c(C)cnnc4C)cc23)c1 [Example 79, 3-[5-[(1R)-1-(3,5-dimethylpyridazin-4-yl)ethoxy]-1H-indazol-3-yl]-5-methyl-benzonitrile] | 0.1 to 100 | 0.1 to 100 | 250 to 1000 | 250 to 1000 | 0.1 to 100 | 0.1 to 100 | 0.1 to 100 |
| COc1cc(C#N)cc(-c2n[nH]c3ccc(O[C@H](C)c4c(C)cnnc4C)cc23)c1 [Example 53, 3-[5-[(1R)-1-(3,5-dimethylpyridazin-4-yl)ethoxy]-1H-indazol-3-yl]-5-methoxy-benzonitrile] | 0.1 to 100 | 250 to 1000 | 250 to 1000 | – | – | 0.1 to 100 | 0.1 to 100 |
| C[C@@H](Oc1ccc2[nH]nc(-c3cnc4c(c3)N(C(=O)CCN(C)C)CCO4)c2c1)c1c(Cl)cncc1Cl [Example 26, 1-[7-[5-[(1R)-1-(3,5-dichloro-4-pyridyl)ethoxy]-1H-indazol-3-yl]-2,3-dihydropyrido[2,3-b][1,4]oxazin-1-yl]-3-(dimethyl-amino)propan-1-one] | > 1000 | > 1000 | 0.1 to 100 | – | – | 0.1 to 100 | 250 to 1000 |
| C[C@@H](Oc1ccc2[nH]nc(-c3cnc(N)c(C#N)c3)c2c1)c1c(Cl)cncc1Cl [Example 30, 2-amino-5-[5-[(1R)-1-(3,5-dichloro-4-pyridyl)ethoxy]-1H-indazol-3-yl]pyridine-3-carbonitrile] | > 1000 | 0.1 to 100 | 250 to 1000 | – | – | 0.1 to 100 | 0.1 to 100 |
| C[C@@H](Oc1ccc2[nH]nc(-c3cnc4c(c3)N(C(=O)c3ccccn3)CCO4)c2c1)c1c(Cl)cncc1Cl [Example 20, [7-[5-[(1R)-1-(3,5-dichloro-4-pyridyl)ethoxy]-1H-indazol-3-yl]-2,3-dihydropyrido[2,3-b][1,4]oxazin-1-yl]-(2-pyridyl)methanone] | 100 to 250 | 100 to 250 | 250 to 1000 | – | – | 0.1 to 100 | 0.1 to 100 |
| Cc1ncccc1C(=O)N1CCOc2ncc(-c3n[nH]c4ccc(O[C@H](C)c5c(Cl)cncc5Cl)cc34)cc21 [Example 42, [7-[5-[(1R)-1-(3,5-dichloro-4-pyridyl)ethoxy]-1H-indazol-3-yl]-2,3-dihydro-pyrido[2,3-b][1,4]oxazin-1-yl]-(2-methyl-3-pyridyl)methanone] | > 1000 | > 1000 | > 1000 | – | – | 0.1 to 100 | 100 to 250 |
| COc1cc(-c2n[nH]c3ccc(O[C@H](C)c4c(Cl)cncc4Cl)cc23)cnc1N [Example 34, 5-[5-[(1R)-1-(3,5-dichloro-4-pyridyl)ethoxy]-1H-indazol-3-yl]-3-methoxy-pyridin-2-amine] | 250 to 1000 | 250 to 1000 | 250 to 1000 | – | – | 0.1 to 100 | 0.1 to 100 |
| C[C@@H](Oc1ccc2[nH]nc(-c3cnc4c(c3)NCCO4)c2c1)c1c(Cl)cncc1Cl [Example 17, 7-[5-[(1R)-1-(3,5-dichloro-4-pyridyl)ethoxy]-1H-indazol-3-yl]-2,3-dihydro-1H-pyrido[2,3-b][1,4]oxazine] | 0.1 to 100 | 0.1 to 100 | 250 to 1000 | – | – | 0.1 to 100 | 0.1 to 100 |
| C[C@@H](Oc1ccc2[nH]nc(-c3cnc(N)c(OC(F)F)c3)c2c1)c1c(Cl)cncc1Cl [Example 28, 5-[5-[(1R)-1-(3,5-dichloro-4-pyridyl)ethoxy]-1H-indazol-3-yl]-3-(difluoromethoxy)pyridin-2-amine] | > 1000 | 250 to 1000 | 250 to 1000 | > 1000 | 250 to 1000 | 0.1 to 100 | 250 to 1000 |
| Cc1ccc(C(=O)N2CCOc3ncc(-c4n[nH]c5ccc(O[C@H](C)c6c(Cl)cncc6Cl)cc45)cc32)cn1 [Example 41] | 100 to 250 | 0.1 to 100 | 250 to 1000 | – | – | 0.1 to 100 | 0.1 to 100 |
| Cc1nccc(C(=O)N2CCOc3ncc(-c4n[nH]c5ccc(O[C@H](C)c6c(Cl)cncc6Cl)cc45)cc32)n1 [Example 40, [7-[5-[(1R)-1-(3,5-dichloro-4-pyridyl)ethoxy]-1H-indazol-3-yl]-2,3-dihydro-pyrido[2,3-b][1,4]oxazin-1-yl]-(2-methyl-pyrimidin-4-yl)methanone] | 250 to 1000 | 250 to 1000 | 250 to 1000 | – | – | 0.1 to 100 | 0.1 to 100 |
| C[C@@H](Oc1ccc2[nH]nc(-c3cnc4c(c3)N(CCO)CCO4)c2c1)c1c(Cl)cncc1Cl [Example 49, 2-[7-[5-[(1R)-1-(3,5-dichloro-4-pyridyl)ethoxy]-1H-indazol-3-yl]-2,3-dihydro-pyrido[2,3-b][1,4]oxazin-1-yl]ethanol] | > 1000 | > 1000 | 250 to 1000 | – | – | 100 to 250 | 250 to 1000 |
| COc1cc(NC(=O)c2ccccn2)cc(-c2n[nH]c3ccc(O[C@H](C)c4c(Cl)cncc4Cl)cc23)c1 [Example 45, N-[3-[5-[(1R)-1-(3,5-dichloro-4-pyridyl)ethoxy]-1H-indazol-3-yl]-5-methoxy-phenyl]pyridine-2-carboxamide] | > 1000 | 250 to 1000 | 250 to 1000 | – | – | 0.1 to 100 | 0.1 to 100 |
| C[C@@H](Oc1ccc2[nH]nc(-c3ccc(OC4CC5(C4)CN(S(C)(=O)=O)C5)nc3)c2c1)c1c(Cl)cncc1Cl [Example 152, (R)-5-(1-(3,5-dichloropyridin-4-yl)ethoxy)-3-(6-((2-(methylsulfonyl)-2-azaspiro[3.3]heptan-6-yl)oxy)pyridin-3-yl)-1H-indazole] | 0.1 to 100 | 0.1 to 100 | – | 100 to 250 | 0.1 to 100 | 0.1 to 100 | 0.1 to 100 |
| C[C@@H](Oc1ccc2[nH]nc(-c3ccc4c(c3)COC3(CCN(S(C)(=O)=O)CC3)O4)c2c1)c1c(Cl)cncc1Cl [Example 165, 6-[5-[(1R)-1-(3,5-dichloro-4-pyridyl)ethoxy]-1H-indazol-3-yl]-1′-methylsulfonyl-spiro[4H-1,3-benzodioxine-2,4′-piperidine]] | 0.1 to 100 | 0.1 to 100 | – | 250 to 1000 | 0.1 to 100 | 0.1 to 100 | 0.1 to 100 |
| Cc1ncc(Cl)c([C@@H](C)Oc2ccc3[nH]nc(-c4ccc(O[C@@H]5CCOC5)nc4)c3c2)c1Cl [Example 147, 5-((R)-1-(3,5-Dichloro-2-methylpyridin-4-yl)ethoxy)-3-(6-(((R)-tetrahydrofuran-3-yl)oxy)pyridin-3-yl)-1H-indazole] | 0.1 to 100 | 0.1 to 100 | – | > 1000 | 100 to 250 | 0.1 to 100 | 0.1 to 100 |
| C[C@@H](Oc1ccc2[nH]nc(-c3ccc(NC(=O)N4CCOCC4)nc3)c2c1)c1c(Cl)cncc1Cl [Example 16, N-[5-[5-[(1R)-1-(3,5-dichloro-4-pyridyl)ethoxy]-1H-indazol-3-yl]-2-pyridyl]morpholine-4-carboxamide] | 0.1 to 100 | 0.1 to 100 | – | 0.1 to 100 | 0.1 to 100 | 0.1 to 100 | 0.1 to 100 |
| CNC(=O)c1ccc(-c2n[nH]c3ccc(O[C@H](C)c4c(Cl)cncc4Cl)cc23)cn1 [Example 9, (R)-5-(5-(1-(3,5-Dichloropyridin-4-yl)ethoxy)-1H-indazol-3-yl)-N-methylpicolinamide] | 0.1 to 100 | 0.1 to 100 | – | 100 to 250 | 0.1 to 100 | 0.1 to 100 | 0.1 to 100 |
| CCN1CCC2(CC1)OCc1cc(-c3n[nH]c4ccc(O[C@H](C)c5c(C)cnnc5C)cc34)ccc1O2 [Example 106, (R)-6-(5-(1-(3,5-dimethylpyridazin-4-yl)ethoxy)-1H-indazol-3-yl)-1′-ethyl-4H-spiro[benzo[d][1,3]dioxine-2,4′-piperidine]] | 0.1 to 100 | 0.1 to 100 | – | 0.1 to 100 | 0.1 to 100 | 0.1 to 100 | 0.1 to 100 |
